The results in this text go back to US12252524B2, “GIP/GLP1 co-agonist compounds” (Eli Lilly and Company, priority 2018, dated 2025).

Numbered stars: 1 amine (or outer) side, 2 acyl side, 3 side chain; on linkers, the order of the positions; unused ones are H or OH. Square brackets hold non-standard residues; d marks the D form. Side chains are listed from the residue outwards. Peptide text beside a SMILES is read from it. * marks the point of attachment. C20 diacid = O=C(O)CCCCCCCCCCCCCCCCCCC(=O)*; γGlu = O=C(O)[C@H](CCC(=O)[*:2])N[*:1]; AEEA = NCCOCCOCC(=O)O; Aib = CC(C)(N)C(=O)O

The target in assay [1] is T1, human Gcg receptor (Homo sapiens, UniProt P47871).
T1 construct: expressed in transfected cells; crude membranes
Briefly: [125I]-Glucagon binding (SPA), human Gcg receptor. To be noted: read-out: hGLcgR Ki, nM (SEM, n). The procedure, abridged: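 Crude membranes from cells expressing the receptor, prepared by hypotonic lysis in 50 mM Tris HCl pH 7.5 with protease inhibitors, homogenization and differential centrifugation, were used in a WGA-bead SPA. Binding buffer: 25 mM HEPES pH 7.4, 2.5 mM CaCl2, 1 mM MgCl2, bacitracin, Tween-20.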

For assay [2], the target named is T2, human GIP receptor (Homo sapiens, UniProt P48546).
T2 construct: expressed in transfected cells; crude membranes
T2 sequence (P48546 22-466): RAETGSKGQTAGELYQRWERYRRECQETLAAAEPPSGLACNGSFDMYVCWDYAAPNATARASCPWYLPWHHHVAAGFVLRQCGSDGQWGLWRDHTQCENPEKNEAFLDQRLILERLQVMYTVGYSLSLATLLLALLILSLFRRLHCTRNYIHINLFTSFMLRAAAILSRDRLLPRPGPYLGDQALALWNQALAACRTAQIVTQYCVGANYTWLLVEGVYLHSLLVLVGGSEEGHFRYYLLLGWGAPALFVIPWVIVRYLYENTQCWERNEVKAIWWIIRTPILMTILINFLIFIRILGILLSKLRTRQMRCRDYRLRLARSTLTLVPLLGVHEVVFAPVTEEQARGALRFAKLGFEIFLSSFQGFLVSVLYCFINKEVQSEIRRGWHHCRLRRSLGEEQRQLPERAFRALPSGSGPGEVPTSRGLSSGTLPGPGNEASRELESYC
Put plainly: [125I]-GIP binding (SPA), human GIP receptor. To be noted: read-out: hGIPR Ki, nM (SEM, n).

In assay [3] the target is human GLP-1 receptor (GLP-1R) (Homo sapiens, UniProt P43220). Put plainly: cAMP pharmacological functional assay in presence of casein, hGLP-1R. The class given is cell-based. To be noted: HEK293 cells expressing hGLP-1R, 0.1% Casein, geometric mean; read-out: hGLP1R cAMP Rel EC50 nM (SEM, n).
Assay [4] addresses T3, gastric inhibitory peptide receptor (GIPR) (Homo sapiens, UniProt P48546).
T3 sequence (P48546 22-466): T2 sequence (P48546 22-466)
Briefly: cAMP pharmacological functional assay in presence of casein, hGIPR. The format is cell-based. To be noted: HEK293 cells expressing hGIPR, 0.1% Casein, geometric mean; read-out: hGIPR cAMP Rel EC50 nM (SEM, n).

Assay [5] concerns the target human GLP-1R (Homo sapiens, UniProt P43220). Briefly: [125I]-GLP-1 binding (SPA), human GLP-1 receptor. On the set-up: expressed in transfected cells; crude membranes. To be noted: read-out: hGLP1R Ki, (nM) (SEM, n). The procedure, abridged:
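Crude-membrane binding assay; one membrane prep included 1 mM MgCl2 and 25 units/ml DNAse I during lysis. Assay buffer at pH 7.4 contains 0.1% (w/v) bacitracin and 0.003% (w/v) TWEEN-20. Ki is reported as geometric mean.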

human GLP-1R, sequence (P43220 24-463): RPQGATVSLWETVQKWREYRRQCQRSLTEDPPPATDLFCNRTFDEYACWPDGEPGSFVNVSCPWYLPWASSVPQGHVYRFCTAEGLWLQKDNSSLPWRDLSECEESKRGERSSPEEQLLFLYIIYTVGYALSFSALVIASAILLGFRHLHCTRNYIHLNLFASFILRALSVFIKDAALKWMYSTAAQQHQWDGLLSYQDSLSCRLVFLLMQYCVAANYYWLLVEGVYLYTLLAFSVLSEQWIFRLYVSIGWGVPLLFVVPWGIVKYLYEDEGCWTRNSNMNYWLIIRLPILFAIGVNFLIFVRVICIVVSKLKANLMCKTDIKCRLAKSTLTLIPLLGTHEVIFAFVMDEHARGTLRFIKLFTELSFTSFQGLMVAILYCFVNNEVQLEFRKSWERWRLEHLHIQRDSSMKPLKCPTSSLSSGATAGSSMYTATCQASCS
human GLP-1 receptor (GLP-1R), sequence (P43220 24-463): as above
T1 sequence (P47871 26-477): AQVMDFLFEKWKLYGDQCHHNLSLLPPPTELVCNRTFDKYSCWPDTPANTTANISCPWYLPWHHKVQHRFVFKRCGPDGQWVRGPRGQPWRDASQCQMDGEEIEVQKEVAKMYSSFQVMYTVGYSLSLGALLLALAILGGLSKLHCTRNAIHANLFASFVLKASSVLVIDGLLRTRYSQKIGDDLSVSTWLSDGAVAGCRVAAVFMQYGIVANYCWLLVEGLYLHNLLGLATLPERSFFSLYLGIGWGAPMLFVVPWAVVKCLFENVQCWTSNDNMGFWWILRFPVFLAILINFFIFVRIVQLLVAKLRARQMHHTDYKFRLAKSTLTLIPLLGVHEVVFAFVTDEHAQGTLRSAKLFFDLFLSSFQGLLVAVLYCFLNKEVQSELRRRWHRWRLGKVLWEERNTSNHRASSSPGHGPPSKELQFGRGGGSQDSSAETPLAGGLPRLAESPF

With `CC[C@H](C)[C@H](NC(=O)[C@H](CCCCN)NC(=O)[C@H](CC(=O)O)NC(=O)[C@H](CC(C)C)NC(=O)[C@H](CC(C)C)NC(=O)[C@@H](NC(=O)[C@H](CO)NC(=O)[C@H](Cc1ccc(O)cc1)NC(=O)[C@H](CC(=O)O)NC(=O)[C@H](CO)NC(=O)[C@@H](NC(=O)[C@H](Cc1ccccc1)NC(=O)[C@@H](NC(=O)CNC(=O)[C@H](CCC(=O)O)NC(=O)C(C)(C)NC(=O)[C@@H](N)Cc1ccc(O)cc1)[C@@H](C)O)[C@@H](C)O)[C@@H](C)CC)C(=O)N[C@@H](C)C(=O)N[C@@H](CCC(N)=O)C(=O)NC(C)(C)C(=O)N[C@@H](C)C(=O)N[C@@H](Cc1ccccc1)C(=O)N[C@H](C(=O)N[C@@H](CCC(=O)O)C(=O)N[C@@H](Cc1ccc(O)cc1)C(=O)N[C@@H](CC(C)C)C(=O)N[C@H](C(=O)N[C@@H](CCC(=O)O)C(=O)NCC(=O)NCC(=O)N1CCC[C@H]1C(=O)N[C@@H](CO)C(=O)N[C@@H](CO)C(=O)NCC(=O)N[C@@H](CCCCNC(=O)COCCOCCNC(=O)COCCOCCNC(=O)CC[C@H](NC(=O)CCCCCCCCCCCCCCCCCCC(=O)O)C(=O)O)C(=O)N1CCC[C@H]1C(=O)N1CCC[C@H]1C(=O)N1CCC[C@H]1C(=O)N[C@@H](CO)C(N)=O)[C@@H](C)CC)[C@@H](C)CC` [Example 44] (H-Y[Aib]EGTFTSDYSILLDKIAQ[Aib]AFIEYLIEGGPSSGK([AEEA-AEEA-γGlu-C20 diacid])PPPS-NH2), the values for the Ki in assay [1], in assay [2] and in assay [5] were 121 nM, 0.0516 nM and 10.6 nM, respectively. Moreover, the EC50 in assay [3] is 0.752 nM; in assay [4], 0.128 nM.

Take `CC[C@H](C)[C@H](NC(=O)[C@H](CCCCN)NC(=O)[C@H](CC(=O)O)NC(=O)[C@H](CC(C)C)NC(=O)[C@H](CC(C)C)NC(=O)[C@@H](NC(=O)[C@H](CO)NC(=O)[C@H](Cc1ccc(O)cc1)NC(=O)[C@H](CC(=O)O)NC(=O)[C@H](CO)NC(=O)[C@@H](NC(=O)[C@H](Cc1ccccc1)NC(=O)[C@@H](NC(=O)CNC(=O)[C@H](CCC(=O)O)NC(=O)C(C)(C)NC(=O)[C@@H](N)Cc1ccc(O)cc1)[C@@H](C)O)[C@@H](C)O)[C@@H](C)CC)C(=O)N[C@@H](C)C(=O)N[C@@H](CCC(N)=O)C(=O)NC(C)(C)C(=O)N[C@@H](C)C(=O)N[C@@H](Cc1ccccc1)C(=O)N[C@H](C(=O)N[C@@H](CCC(=O)O)C(=O)N[C@@H](Cc1ccc(O)cc1)C(=O)N[C@@H](CC(C)C)C(=O)N[C@H](C(=O)N[C@@H](CCC(=O)O)C(=O)NCC(=O)NCC(=O)N1CCC[C@H]1C(=O)N[C@@H](CO)C(=O)N[C@@H](CO)C(=O)NCC(=O)N[C@@H](C)C(=O)N[C@@H](CCCCNC(=O)COCCOCCNC(=O)COCCOCCNC(=O)CC[C@H](NC(=O)CCCCCCCCCCCCCCCCCCC(=O)O)C(=O)O)C(=O)N1CCC[C@H]1C(=O)N1CCC[C@H]1C(=O)N[C@@H](CO)C(N)=O)[C@@H](C)CC)[C@@H](C)CC` [Example 45] (H-Y[Aib]EGTFTSDYSILLDKIAQ[Aib]AFIEYLIEGGPSSGAK([AEEA-AEEA-γGlu-C20 diacid])PPS-NH2): the Ki in assay [1] was 11.1 nM; in assay [2], 0.0463 nM; in assay [5], 5.65 nM. Moreover, the EC50 was found to be 1.03 nM in assay [3] and 0.106 nM in assay [4].

For `CC[C@H](C)[C@H](NC(=O)[C@H](CCCCN)NC(=O)[C@H](CC(=O)O)NC(=O)[C@H](CC(C)C)NC(=O)[C@H](CC(C)C)NC(=O)[C@@H](NC(=O)[C@H](CO)NC(=O)[C@H](Cc1ccc(O)cc1)NC(=O)[C@H](CC(=O)O)NC(=O)[C@H](CO)NC(=O)[C@@H](NC(=O)[C@H](Cc1ccccc1)NC(=O)[C@@H](NC(=O)CNC(=O)[C@H](CCC(=O)O)NC(=O)C(C)(C)NC(=O)[C@@H](N)Cc1ccc(O)cc1)[C@@H](C)O)[C@@H](C)O)[C@@H](C)CC)C(=O)N[C@@H](C)C(=O)N[C@@H](CCC(N)=O)C(=O)NC(C)(C)C(=O)N[C@@H](C)C(=O)N[C@@H](Cc1ccccc1)C(=O)N[C@H](C(=O)N[C@@H](CCC(=O)O)C(=O)N[C@@H](Cc1ccc(O)cc1)C(=O)N[C@@H](CC(C)C)C(=O)N[C@H](C(=O)N[C@@H](CCC(=O)O)C(=O)NCC(=O)NCC(=O)N1CCC[C@H]1C(=O)N[C@@H](CO)C(=O)N[C@@H](CO)C(=O)NCC(=O)N[C@@H](C)C(=O)N1CCC[C@H]1C(=O)N[C@@H](CCCCNC(=O)COCCOCCNC(=O)COCCOCCNC(=O)CC[C@H](NC(=O)CCCCCCCCCCCCCCCCCCC(=O)O)C(=O)O)C(=O)N1CCC[C@H]1C(=O)N[C@@H](CO)C(N)=O)[C@@H](C)CC)[C@@H](C)CC` [Example 46] (H-Y[Aib]EGTFTSDYSILLDKIAQ[Aib]AFIEYLIEGGPSSGAPK([AEEA-AEEA-γGlu-C20 diacid])PS-NH2), the figures for the Ki in assay [1], in assay [2] and in assay [5] were 133 nM, 0.0852 nM and 13.4 nM, respectively. In addition, the EC50 in assay [3] was 0.687 nM; in assay [4] it was 0.172 nM.

In the case of `CC[C@H](C)[C@H](NC(=O)[C@H](CCCCN)NC(=O)[C@H](CC(=O)O)NC(=O)[C@H](CC(C)C)NC(=O)[C@H](CC(C)C)NC(=O)[C@@H](NC(=O)[C@H](CO)NC(=O)[C@H](Cc1ccc(O)cc1)NC(=O)[C@H](CC(=O)O)NC(=O)[C@H](CO)NC(=O)[C@@H](NC(=O)[C@H](Cc1ccccc1)NC(=O)[C@@H](NC(=O)CNC(=O)[C@H](CCC(=O)O)NC(=O)C(C)(C)NC(=O)[C@@H](N)Cc1ccc(O)cc1)[C@@H](C)O)[C@@H](C)O)[C@@H](C)CC)C(=O)N[C@@H](C)C(=O)N[C@@H](CCC(N)=O)C(=O)NC(C)(C)C(=O)N[C@@H](C)C(=O)N[C@@H](Cc1ccccc1)C(=O)N[C@H](C(=O)N[C@@H](CCC(=O)O)C(=O)N[C@@H](Cc1ccc(O)cc1)C(=O)N[C@@H](CC(C)C)C(=O)N[C@H](C(=O)N[C@@H](CCC(=O)O)C(=O)NCC(=O)NCC(=O)N1CCC[C@H]1C(=O)N[C@@H](CO)C(=O)N[C@@H](CO)C(=O)NCC(=O)N[C@@H](C)C(=O)N1CCC[C@H]1C(=O)N1CCC[C@H]1C(=O)N1CCC[C@H]1C(=O)N[C@@H](CCCCNC(=O)COCCOCCNC(=O)COCCOCCNC(=O)CC[C@H](NC(=O)CCCCCCCCCCCCCCCCCCC(=O)O)C(=O)O)C(N)=O)[C@@H](C)CC)[C@@H](C)CC` [Example 48] (H-Y[Aib]EGTFTSDYSILLDKIAQ[Aib]AFIEYLIEGGPSSGAPPPK([AEEA-AEEA-γGlu-C20 diacid])-NH2; N-terminus assumed), the Ki was determined as 111 nM in assay [1], 0.074 nM in assay [2] and 15.7 nM in assay [5]. Besides, the EC50 in assay [3] is 0.691 nM; in assay [4], 0.168 nM.

For the molecule `CC[C@H](C)[C@H](NC(=O)[C@H](CCCCN)NC(=O)[C@H](CC(=O)O)NC(=O)[C@H](CC(C)C)NC(=O)[C@H](CC(C)C)NC(=O)[C@@H](NC(=O)[C@H](CO)NC(=O)[C@H](Cc1ccc(O)cc1)NC(=O)[C@H](CC(=O)O)NC(=O)[C@H](CO)NC(=O)[C@@H](NC(=O)[C@H](Cc1ccccc1)NC(=O)[C@@H](NC(=O)CNC(=O)[C@H](CCC(=O)O)NC(=O)C(C)(C)NC(=O)[C@@H](N)Cc1ccc(O)cc1)[C@@H](C)O)[C@@H](C)O)[C@@H](C)CC)C(=O)N[C@@H](C)C(=O)N[C@@H](CCC(N)=O)C(=O)NC(C)(C)C(=O)N[C@@H](C)C(=O)N[C@@H](Cc1ccccc1)C(=O)N[C@H](C(=O)N[C@@H](CCC(=O)O)C(=O)N[C@@H](Cc1ccc(O)cc1)C(=O)N[C@@H](CC(C)C)C(=O)N[C@H](C(=O)N[C@@H](CCC(=O)O)C(=O)NCC(=O)NCC(=O)N1CCC[C@H]1C(=O)N[C@@H](CO)C(=O)N[C@@H](CO)C(=O)NCC(=O)N[C@@H](C)C(=O)N1CCC[C@H]1C(=O)N1CCC[C@H]1C(=O)N1CCC[C@H]1C(=O)N[C@@H](CO)C(=O)N[C@@H](CCCCNC(=O)COCCOCCNC(=O)COCCOCCNC(=O)CC[C@H](NC(=O)CCCCCCCCCCCCCCCCCCC(=O)O)C(=O)O)C(N)=O)[C@@H](C)CC)[C@@H](C)CC` [Example 49] (H-Y[Aib]EGTFTSDYSILLDKIAQ[Aib]AFIEYLIEGGPSSGAPPPSK([AEEA-AEEA-γGlu-C20 diacid])-NH2; N-terminus assumed), the Ki stood at 236 nM in assay [1], 0.087 nM in assay [2] and 12.3 nM in assay [5]. For the same molecule, the EC50 in assay [3] was determined as 0.597 nM; in assay [4], 0.0868 nM.

One may read the Ki as a measure of affinity in units of concentration, obtained from inhibition or displacement. As usually defined, the EC50 is the midpoint of the concentration-response curve.
